Columns and labels:
farm swine = assay: One-month pre-clinical assessment (QCA, histomorphometry, histology); format: in vivo; conditions: low dose 0.30 μg per mm^2 of stent, 1 month, control 4.0
Excerpt: A total of 24 stents were implanted in 12 farm swine pigs for 1 month. […] The higher dose was set at the maximum quantity that could be loaded onto the stent.

[1] = Solubility of batimastat in ethanol (100%); format: physicochemical
Excerpt: This was by preparation of a series of solutions outlined in Table 1

Yucatan minipigs = assay: 3-month pre-clinical evaluation (QCA stenosis); format: in vivo; conditions: 3 months, not statistically significant (p=0.15)
Excerpt: After 3 months a trend in favour of the treatment groups was found, with an indication of a dose-response relationship shown in FIG. 5. The stenosis was reduced by 20% and 34% in the low and high dose groups respectively compared to the control.

[2] = Batimastat elution from stents in PBS, non flow system; format: physicochemical; conditions: coated stents loaded from methanol, after 1 hour, based on total amount loaded
Procedure: Elution studies were carried out at 25° C. for up to 1 hour in gently agitated PBS. […] At various time intervals a I ml aliquot was removed and replaced with 1 ml fresh PBS. The stents and water aliquots were measured, see section 1.1.4, to give the amount of drug eluted and the amount of drug remaining on the stents, see section 1.2.1 for results. Samples of eluent from elution studies were injected directly into the system. The sensitivity of the method was 0.010 ppm (0.010 μg/ml).

[3] = tested on: coronary arteries of farm swine; assay: Re-endothelialisation of batimastat-loaded BiodivYsio stents (SEM); format: in vivo; conditions: 5 days
Excerpt: BiodivYsio stents (control, low dose batimastat and high dose batimastat) were implanted into healthy farm swine. After 5 days the animals were sacrificed and the stents studied for endothelialisation using scanning electron microscopy.
The stents were implanted into the coronary arteries of farm swine (2 per animal, each in different arteries). After sacrifice, the vessels were excised and trimmed of all extraneous tissue, washed in buffer, and fixed in 2.5% glutaraldehyde at pH 7.4. Fixation was carried out for a minimum of 24-48 hours in 2.5% glutaraldehyde. The section of artery was rinsed in 0.1M cacodylate buffer pH 7.4. The arteries were shipped in 0.1M cacodylate buffer pH 7. The vessels were required to be left whole, i.e. without longitudinal transection. A small V was marked in the proximal end of the vessel to determine vessel orientation. SEM analysis was carried out on three sections of the stented artery and at 2 different magnifications (high and low). The analysis concentrated on the rate and extent of re-endothelisation of the stent struts and the presence of any cellular/biological debris within the stented segment of artery.

[4] = Pharmacokinetic study, 14C batimastat-loaded BiodivYsio stents in iliac arteries; format: in vivo, New Zealand white rabbit; conditions: rabbit iliac arteries, 28 days post-implantation
Excerpt: The pharmacokinetic studies were initiated to investigate the deposition of drug from the batimastat-loaded BiodivYsio stent.

[5] = P is the partition coefficient; cited from earlier work

CNC(=O)[C@H](Cc1ccccc1)NC(=O)[C@H](CC(C)C)[C@H](CSc1cccs1)C(=O)NO (relative stereo) [batimastat, (2R-(1(S*),2R*,3S*))—N4-hydroxy-N1-(2-(methylamino)-2-oxo-1-(phenylmethypethyl)-2-(2-methylpropyl)-3-((thienylthio)methyl)butanediamide]
Intimal area (farm swine): 2.5 | Solubility ([1]; 1.05 mg per ml batimastat in ethanol (100%)): clear suspension | Solubility ([1]; 1.13 mg per ml batimastat in ethanol (100%)): fine suspension | Solubility ([1]; 2.6 mg per ml batimastat in ethanol (100%)): white suspension | Reduction of stenosis compared to the control (QCA) (Yucatan minipigs; high dose 0.30±0.13 μg per mm^2 of stent): 34% | Reduction of stenosis compared to the control (QCA) (Yucatan minipigs; low dose 0.03±0.01 μg per mm^2 of stent): 20% | Batimastat remaining on the stents [2]: 44% | Effect on endothelialisation process in-vivo ([3]; high dose 115.3±16.1 μg per 15 mm stent): did not affect the endothelialisation process | Effect on endothelialisation process in-vivo ([3]; low dose 34.2±1.6 μg per 15 mm stent): did not affect the endothelialisation process | Loaded drug eluted from stent [4]: ~95%

C[C@@H]1C[C@H]2[C@@H]3CCC4=CC(=O)C=C[C@]4(C)[C@@]3(F)[C@@H](O)C[C@]2(C)[C@@]1(O)C(=O)CO [dexamethasone]
log P [5]: 2.55

Reference: US8465758B2, “Drug delivery from stents” (Abbott Laboratories, priority 2001, dated 2013)
